Marks after values point to notes of the source that are not given here.
What was measured:
[1] = Encapsulation efficiency of RNA replicons (Quant-iT RiboGreen); assay type: physicochemical; settings: LNP 40% cationic lipid, 10% DSPC, 48% cholesterol, 2% PEG-DMG; RNA replicon
Experimental: Briefly, lipids were dissolved in ethanol (2m1), a RNA replicon was dissolved in buffer (2 ml, 100 mM sodium citrate, pH 6) and these were mixed with 2 ml of buffer followed by 1 hour of equilibration. The mixture was then dialized overnight against 1×PBS. The resulting product contained liposomes, with ˜70-95% encapsulation efficiency.
The percentage of encapsulated RNA and RNA concentration were determined by Quant-iT RiboGreen RNA reagent kit (Invitrogen), following manufacturer's instructions. The ribosomal RNA standard provided in the kit was used to generate a standard curve. LNPs were diluted 10× or 100× in 1× TE buffer (from kit) before addition of the dye. Separately, LNPs were diluted 10× or 100× in 1× TE buffer containing 0.5% Triton X before addition of the dye (to disrupt the LNPs and thus to assay total RNA). Thereafter an equal amount of dye was added to each solution and then ˜180 μL of each solution after dye addition was loaded in duplicate into a 96 well tissue culture plate. The fluorescence (Ex 485 nm, Em 528 nm) was read on a microplate reader. All LNP formulations were dosed in vivo based on the encapsulated amount of RNA.

[2] = Measurement of mRNA encapsulation in lipid nanoparticles (Quant-iT Ribogreen); assay type: physicochemical; settings: LNP cationic lipid/DSPC/cholesterol/stealth lipid, N:P 4:1, leptin mRNA
Experimental: All equipment and disposable supplies are certified free of RNase activity by the manufacturer or rendered RNase free by use of the RNaseZap reagent (LifeTechnologies). mRNA is encapsulated at a cationic lipid amine to mRNA phosphate (N:P) molar ratio of 4:1. Lipids (cationic lipid, DSPC, cholesterol and lipidated PEG or stealth lipid) are dissolved in ethanol. The molar ratios are 40:10:38:2, respectively. The mixture is sonicated briefly, then gently agitated for 5 minutes and then maintained at 37° C. until use. mRNA is exchanged into citrate buffer pH 5.8-6.0 by use of Amicon Ultra-15 centrifugal concentrators, and the final concentration is adjusted to 0.5 mg/ml and held at 37° C. until use. An equal volume of lipids in ethanol, mRNA in citrate buffer, and citrate buffer alone are drawn into disposable syringes. Tubing leading from syringes containing lipids and mRNA are attached to the T junction, and tubing leading from the syringe containing citrate buffer alone is paired with the tubing exiting the T-junction over a collection vessel containing a stir bar on an active stir plate. Syringes are placed in a syringe pump set to expel contents at a flow rate of 1 ml per minute.
The pump is activated, and the collected mRNA in lipid nanoparticles is transferred to SnakeSkin dialysis tubing (10,000 MWCO, Thermo Scientific). Material is dialyzed against RNAse- and pyrogen-free 1× phosphate buffered saline overnight at 4° C.
Percent encapsulation of mRNA in lipid nanoparticles is determined using the Quant-iT Ribogreen RNA Assay kit (Life Technologies). The LNP-mRNA suspension is assayed in buffer (mRNA outside the particle), and buffer plus Triton X-100 detergent (total mRNA). The difference calculated is the mRNA inside the particle. Prepare a 1000 ng/mL stock from the RNA provided in the kit and use this to generate a standard curve (0 ng/ml, 15.63-1000 ng/ml) in TE and TE+0.75% Triton X-100. Prepare LNP-mRNA samples in TE buffer and TE buffer+0.75% Triton X-100 with appropriate dilution so that reading is in the range of standard curve (400-2,000 fold). In a 384-well plate (Costar non-treated #3573) add 0.04 ml of standard (in duplicate) or sample (in triplicate) per well. Dilute Ribogreen reagent 240-fold in TE buffer and add 0.06 ml per well. Mix contents of wells and measure fluorescence (excitation=480 nm, emission=520 nm). Subtract background values (no RNA) from standard and test sample values and determine the concentrations of RNA in the samples using the standard curves. Determine the percent encapsulation of the sample by dividing the difference in concentrations between sample+triton and sample in buffer alone by the sample+triton concentration.

[3] = Characterization of LNP formulations: Z average particle diameter and polydispersity index; assay type: physicochemical; settings: LNP formulation; for Zav (nm): Z average particle diameter; for polydispersity: polydispersity index
From the text: The lipid nanoparticles have a size of about 1 to about 2,500 nm, about 1 to about 1,500 nm, about 1 to about 1,000 nm, in a sub-embodiment about 50 to about 600 nm, in a sub-embodiment about 50 to about 400 nm, in a sub-embodiment about 50 to about 250 nm, and in a sub-embodiment about 50 to about 150 nm. Unless indicated otherwise, all sizes referred to herein are the average sizes (diameters) of the fully formed nanoparticle, as measured by dynamic light scattering on a Malvern Zetasizer. The nanoparticle sample is diluted in phosphate buffered saline (PBS) so that the count rate is approximately 200-400 kcts. The data is presented as a weighted average of the intensity measure.

RSV F protein = assay type: in vivo; settings: Table 4, BALB/c mice, intramuscular; for Log10(IgG titer), 1 ng RNA (RSV-F), 2 weeks post 2nd immunization: 1 ng vA375 replicon in LNP, days 0 and 21; for Log10(IgG titer), RNA (RSV-F), 2 weeks post 2nd immunization: 100 ng dose

Row | Compound | Encapsulation efficiency (RNA %) [1] [%] | % encapsulation (mRNA Leptin) [2] [%] | Zav (nm) [3] [nm] | polydispersity [3] | Log10(IgG titer), 1 ng RNA (RSV-F), 2 weeks post 2nd immunization (RSV F protein) | Log10(IgG titer), RNA (RSV-F), 2 weeks post 2nd immunization (RSV F protein)
1 | CCCCC/C=C\C/C=C\CCCCCCCCOc1ccc(COC(=O)CCCN(C)C)c(OCCCCCCCC/C=C\C/C=C\CCCCC)c1 [Example 19, 2,4-bis((9Z,12Z)-octadeca-9,12-dienyloxy)benzyl 4-(dimethylamino)butanoate] | 79.9 | 84.3 | 133.2 | 0.074 | 4.68 | 
2 | CCCCCCCCCC(=O)OCCCCCCCCOc1ccc(COC(=O)C2(C)CCN(C)CC2)c(OCCCCCCCCOC(=O)CCCCCCCCC)c1 [Example 26, ((4-(((1,4-Dimethylpiperidine-4-carbonyl)oxy)methyl)-1,3-phenylene)bis(oxy))bis(octane-8,1-diyl) bis(decanoate)] |  | 90.8 |  |  |  | 
3 | CCCCCCCCCC(=O)OCCCCCCCCOc1ccc(OCCCCCCCCOC(=O)CCCCCCCCC)c(COC(=O)OCCCN(C)C)c1 [Example 12, ((2-((((3-(dimethylamino)propoxy)carbonyl)oxy)methyl)-1,4-phenylene)bis(oxy))bis(octane-8,1-diyl) bis(decanoate)] | 89.8 |  | 97.3 | 0.116 | 4.40 | 
4 | CCCCCCCCOC(CCC(=O)OCCCCCOc1ccc(OCCCCCOC(=O)CCC(OCCCCCCCC)OCCCCCCCC)c(COC(=O)CCCN(C)C)c1)OCCCCCCCC [Example 21, ((2-(((4-(Dimethylamino)butanoyl)oxy)methyl)-1,4-phenylene)bis(oxy))bis(pentane-5,1-diyl) bis(4,4-bis(octyloxy)butanoate)] |  | 79.8 |  |  |  | 
5 | CCCCCCCCCC(=O)OCCCCCCCCOc1ccc(COC(=O)CCCN(C)C)c(OCCCCCCCCOC(=O)CCCCCCCCC)c1 [Example 27, ((4-(((4-(Dimethylamino)butanoyl)oxy)methyl)-1,3-phenylene)bis(oxy))bis(octane-8,1-diyl) bis(decanoate)] |  | 95.2 |  |  |  | 
6 | CCCCCCCCCC(=O)OCCCCCCCCOc1ccc(OCCCCCCCCOC(=O)CCCCCCCCC)c(COC(=O)C2CCN(C)CC2)c1 [Example 6, ((2-(((1-methylpiperidine-4-carbonyl)oxy)methyl)-1,4-phenylene)bis(oxy))bis(octane-8,1-diyl) bis(decanoate)] | 71.3 |  |  |  | 4.25 | 
7 | CCCCCCCCCC(=O)OCCCCCCCCOc1ccc(OCCCCCCCCOC(=O)CCCCCCCCC)c(COC(=O)OCCCN(CC)CC)c1 [Example 13, ((2-((((3-(diethylamino)propoxy)carbonyl)oxy)methyl)-1,4-phenylene)bis(oxy))bis(octane-8,1-diyl) bis(decanoate)] | 92.1 |  |  |  |  | 
8 | CCCCC/C=C\C/C=C\CCCCCCCCOc1ccc(OCCCCCCCC/C=C\C/C=C\CCCCC)c(COC(=O)CCN(C)C)c1 [Example 2, 2,5-bis((9Z,12Z)-octadeca-9,12-dien-1-yloxy)benzyl 3-(dimethylamino)propanoate] | 13.1 |  |  |  |  | 4.14 (100 ng dose)*
9 | CCCCCCCCCC(=O)OCCCCCCCCOc1ccc(OCCCCCCCCOC(=O)CCCCCCCCC)c(COC(=O)C2CCN(C(C)C)CC2)c1 [Example 9, ((2-(((1-isopropylpiperidine-4-carbonyl)oxy)methyl)-1,4-phenylene)bis(oxy))bis(octane-8,1-diyl) bis(decanoate)] | 69.1 |  | 182.6 | 0.369 |  | 
10 | CCCCCCCCOC(CCC(=O)OCCCCCOc1ccc(OCCCCCOC(=O)CCC(OCCCCCCCC)OCCCCCCCC)c(COC(=O)CCCN(CC)CC)c1)OCCCCCCCC [Example 22, ((2-(((4-(diethylamino)butanoyl)oxy)methyl)-1,4-phenylene)bis(oxy))bis(pentane-5,1-diyl) bis(4,4-bis(octyloxy)butanoate)] |  | 86.0 |  |  |  | 
11 | CCCCC/C=C\C/C=C\CCCCCCCCOc1cc(COC(=O)CCCN(C)C)c(OCCCCCCCC/C=C\C/C=C\CCCCC)cc1C [Example 16, 4-methyl-2,5-bis((9Z,12Z)-octadeca-9,12-dien-1-yloxy)benzyl 4-(dimethylamino)butanoate] | 88.0 | 85.1 | 115.5 | 0.108 | 4.40 | 
12 | CCCCCCCCCC(=O)OCCCCCCCCOc1ccc(OCCCCCCCCOC(=O)CCCCCCCCC)c(COC(=O)CCN(C)C)c1 [Example 5] |  | 59.0 |  |  |  | 
13 | CCCCC/C=C\C/C=C\CCCCCCCCOc1cc(COC(=O)OCCCCN(C)C)c(OCCCCCCCC/C=C\C/C=C\CCCCC)cc1C [Example 15, 4-(dimethylamino)butyl 4-methyl-2,5-bis((9Z,12Z)-octadeca-9,12-dienyloxy)benzyl Carbonate] | 82.6 |  | 138.8 | 0.210 | 2.81 | 
14 | CCCCC/C=C\C/C=C\CCCCCCCCOc1ccc(OCCCCCCCC/C=C\C/C=C\CCCCC)c(COC(=O)OCCCN(C)C)c1 [Example 3, 2,5-bis((9Z,12Z)-octadeca-9,12-dienyloxy)benzyl 3-(dimethylamino)propyl Carbonate] | 85.0 |  |  |  |  | 4.77 (100 ng dose)*
15 | CCCCCCCCOC(CCC(=O)OCCCOc1ccc(OCCCOC(=O)CCC(OCCCCCCCC)OCCCCCCCC)c(COC(=O)CCCN(C)C)c1)OCCCCCCCC [Example 20, ((2-(((4-(Dimethylamino)butanoyl)oxy)methyl)-1,4-phenylene)bis(oxy))bis(propane-3,1-diyl) bis(4,4-bis(octyloxy)butanoate)] |  | 88.4 |  |  |  | 
16 | CCCCCCCCCC(=O)OCCCCCCCCOc1ccc(COC(=O)CCCN(CC)CC)c(OCCCCCCCCOC(=O)CCCCCCCCC)c1 [Example 28, ((4-(((4-(Diethylamino)butanoyl)oxy)methyl)-1,3-phenylene)bis(oxy))bis(octane-8,1-diyl) bis(decanoate)] |  | 93.6 |  |  |  | 
17 | CCCCCCCCOC(CCC(=O)OCCCCCOc1ccc(OCCCCCOC(=O)CCC(OCCCCCCCC)OCCCCCCCC)c(COC(=O)C2(C)CCN(C)CC2)c1)OCCCCCCCC [Example 23, ((2-(((1,4-Dimethylpiperidine-4-carbonyl)oxy)methyl)-1,4-phenylene)bis(oxy))bis(pentane-5,1-diyl) bis(4,4-bis(octyloxy)butanoate)] |  | 84.3 |  |  |  | 
